Results taken from ChEMBL document CHEMBL4680133, “Novel nitroimidazole derivatives evaluated for their trypanocidal, cytotoxic, and genotoxic activities” (Eur J Med Chem, 2020).

Tests used:
[1] = Mutagenicity in Salmonella typhimurium TA97 measured after 20 mins in absence of S9 fraction by microsome assay; type: toxicity; details: salmonella enterica subsp. enterica serovar typhimurium, microsomes, dose 5-100 µg
[2] = Cytotoxicity against human HepG2 cells assessed as reduction in cell viability measured after 24 hrs by WST1 assay; type: cell-based
[3] = test system: Trypanosoma cruzi; test: Antitrypanosomal activity against bloodstream form of Trypanosoma cruzi Y trypomastigotes infected in African green monkey Vero cells assessed as increase in parasite lysis measured after 24 hrs by Neubauer chamber method; type: functional, organism-based
[4] = Genotoxicity in mouse RAW264.7 cells assessed as survival at 4270 uM measured after 24 hrs by micronucleus test (reference value: 100%); type: toxicity, cell-based; details: read-out: Survival
[5] = Mutagenicity in Salmonella typhimurium YG1021 at 5 to 100 ug/plate after 20 mins by microsome assay; type: toxicity; details: salmonella enterica subsp. enterica serovar typhimurium, microsomes
[6] = Selectivity index, ratio of GI50 for mouse RAW264.7 cells assessed as reduction in cell viability measured after 24 hrs by WST1 assay to IC50 for antitrypanosomal activity against Trypanosoma cruzi Y axenic amastigotes infected in African green monkey Vero cells; type: toxicity; details: read-out: Selectivity Index
[7] = Mutagenicity in Salmonella typhimurium TA100 assessed as revertant/ug measured after 20 mins in absence of S9 fraction by microsome assay; type: toxicity; details: salmonella enterica subsp. enterica serovar typhimurium, microsomes
[8] = Selectivity index, ratio of GI50 for human HepG2 cells assessed as reduction in cell viability measured after 24 hrs by WST1 assay to IC50 for antitrypanosomal activity against Trypanosoma cruzi Y axenic amastigotes infected in African green monkey Vero cells; type: toxicity; details: read-out: Selectivity Index
[9] = Mutagenicity in Salmonella typhimurium TA97 assessed as revertant/ug measured after 20 mins in presence of S9 fraction by microsome assay; type: toxicity, subcellular; details: salmonella enterica subsp. enterica serovar typhimurium, s9, 20 min
[10] = Mutagenicity in Salmonella typhimurium TA97 measured after 20 mins in presence of S9 fraction by microsome assay; type: toxicity, subcellular; details: salmonella enterica subsp. enterica serovar typhimurium, s9, 20 min, dose 5-100 µg
[11] = test system: Trypanosoma cruzi; test: Antitrypanosomal activity against Trypanosoma cruzi Y axenic amastigotes infected in African green monkey Vero cells after 24 hrs by MTT assay; type: functional, organism-based
[12] = Mutagenicity in Salmonella typhimurium TA100 measured after 20 mins in presence of S9 fraction by microsome assay; type: toxicity, subcellular; details: salmonella enterica subsp. enterica serovar typhimurium, s9, 20 min, dose 5-100 µg
[13] = test system: HepG2; test: Genotoxicity in human HepG2 assessed as mitotic index at 4270 uM measured after 24 hrs by micronucleus test (reference value: 61 to 108); type: toxicity, cell-based; details: hepg2, 24 h
[14] = Mutagenicity in Salmonella typhimurium TA98 measured after 20 mins in absence of S9 fraction by microsome assay; type: toxicity; details: salmonella enterica subsp. enterica serovar typhimurium, microsomes, dose 5-100 µg
[15] = Mutagenicity in Salmonella typhimurium TA98 measured after 20 mins in presence of S9 fraction by microsome assay; type: toxicity, subcellular; details: salmonella enterica subsp. enterica serovar typhimurium, s9, 20 min, dose 5-100 µg
[16] = Toxicity in Salmonella typhimurium YG1021 at 5 to 100 ug/plate after 20 mins by colony counting method; details: salmonella enterica subsp. enterica serovar typhimurium, dose 5-100 µg
[17] = test system: RAW264.7; test: Genotoxicity in mouse RAW264.7 cells assessed as number of micronucleated cells at 213 uM measured after 24 hrs by micronucleus test (reference value: 12 to 15); type: toxicity, cell-based; details: raw264.7, 24 h
[18] = Genotoxicity in human HepG2 assessed as survival at 2135 uM measured after 24 hrs by micronucleus test (reference value: 100%); type: toxicity, cell-based; details: HepG2 cells, read-out: Survival
[19] = Mutagenicity in Salmonella typhimurium TA100 measured after 20 mins in absence of S9 fraction by microsome assay; type: toxicity; details: salmonella enterica subsp. enterica serovar typhimurium, microsomes, dose 5-100 µg
[20] = test system: HepG2; test: Cytotoxicity against human HepG2 cells at 21.3 to 427 uM measured after 24 hrs by LDH assay; type: cell-based; details: hepg2, 24 h, dose 21.3-427 µM
[21] = Selectivity index, ratio of GI50 for mouse RAW264.7 cells assessed as reduction in cell viability measured after 24 hrs by WST1 assay to IC50 for antitrypanosomal activity against bloodstream form of Trypanosoma cruzi Y trypomastigotes infected in African green monkey Vero cells; type: toxicity; details: read-out: Selectivity Index
[22] = Mutagenicity in Salmonella typhimurium TA97 assessed as revertant/ug measured after 20 mins in absence of S9 fraction by microsome assay; type: toxicity; details: salmonella enterica subsp. enterica serovar typhimurium, microsomes
[23] = Mutagenicity in Salmonella typhimurium TA100 assessed as revertant/ug measured after 20 mins in presence of S9 fraction by microsome assay; type: toxicity, subcellular; details: salmonella enterica subsp. enterica serovar typhimurium, s9, 20 min
[24] = Selectivity index, ratio of GI50 for human HepG2 cells assessed as reduction in cell viability measured after 24 hrs by WST1 assay to IC50 for antitrypanosomal activity against bloodstream form of Trypanosoma cruzi Y trypomastigotes infected in African green monkey Vero cells; type: toxicity; details: read-out: Selectivity Index
[25] = Mutagenicity in Salmonella typhimurium TA102 measured after 20 mins in presence of S9 fraction by microsome assay; type: toxicity, subcellular; details: salmonella enterica subsp. enterica serovar typhimurium, s9, 20 min, dose 5-100 µg
[26] = Cytotoxicity against mouse RAW264.7 cells assessed as reduction in cell viability measured after 24 hrs by WST1 assay; type: cell-based
[27] = Mutagenicity in Salmonella typhimurium TA102 measured after 20 mins in absence of S9 fraction by microsome assay; type: toxicity; details: salmonella enterica subsp. enterica serovar typhimurium, microsomes, dose 5-100 µg
[28] = Toxicity in Salmonella typhimurium YG1024 at 5 to 100 ug/plate after 20 mins by colony counting method; details: salmonella enterica subsp. enterica serovar typhimurium, dose 5-100 µg
[29] = Mutagenicity in Salmonella typhimurium YG1024 at 5 to 100 ug/plate after 20 mins by microsome assay; type: toxicity; details: salmonella enterica subsp. enterica serovar typhimurium, microsomes, dose 5-100 µg
[30] = Toxicity in Salmonella typhimurium TA97 at 100 ug/plate measured after 20 mins in absence of S9 fraction by colony counting method; details: salmonella enterica subsp. enterica serovar typhimurium, dose 100 µg
[31] = test system: RAW264.7; test: Genotoxicity in mouse RAW264.7 cells assessed as mitotic index at 175 uM measured after 24 hrs by micronucleus test (reference value: 40 to 249); type: toxicity, cell-based; details: raw264.7, 24 h
[32] = Genotoxicity in mouse RAW264.7 cells assessed as survival at 1750 uM measured after 24 hrs by micronucleus test (reference value: 100%); type: toxicity, cell-based; details: read-out: Survival
[33] = test system: HepG2; test: Genotoxicity in human HepG2 assessed as number of micronucleated cells at 175 uM measured after 24 hrs by micronucleus test (reference value: 14 to 18); type: toxicity, cell-based; details: hepg2, 24 h
[34] = Genotoxicity in human HepG2 assessed as survival at 350 uM measured after 24 hrs by micronucleus test (reference value: 100%); type: toxicity, cell-based; details: HepG2 cells, read-out: Survival
[35] = Toxicity in Salmonella typhimurium TA102 at 100 ug/plate measured after 20 mins in absence of S9 fraction by colony counting method; details: salmonella enterica subsp. enterica serovar typhimurium, dose 100 µg
[36] = test system: RAW264.7; test: Genotoxicity in mouse RAW264.7 cells assessed as mitotic index at 3500 uM measured after 24 hrs by micronucleus test (reference value: 40 to 249); type: toxicity, cell-based; details: raw264.7, 24 h
[37] = Genotoxicity in mouse RAW264.7 cells assessed as survival at 3500 uM measured after 24 hrs by micronucleus test (reference value: 100%); type: toxicity, cell-based; details: read-out: Survival
[38] = test system: HepG2; test: Genotoxicity in human HepG2 assessed as number of micronucleated cells at 3500 uM measured after 24 hrs by micronucleus test (reference value: 14 to 18); type: toxicity, cell-based; details: hepg2, 24 h
[39] = Genotoxicity in mouse RAW264.7 cells assessed as survival at 350 uM measured after 24 hrs by micronucleus test (reference value: 100%); type: toxicity, cell-based; details: read-out: Survival

Structure (SMILES) | Activity [1] | GI50 at 24 h [2] | IC50 [3] | Activity [5] | selectivity ratio at 24 h [6] | Activity [7] | selectivity ratio at 24 h [8] | Activity [9] | Activity [10] | IC50 [11] | Activity [12] | Activity [14] | Activity [15] | Activity [16] | Activity [19] | selectivity ratio at 24 h [21] | Activity [22] | Activity [23] | selectivity ratio at 24 h [24] | Activity [25] | further results
Cn1cnc([N+](=O)[O-])c1-n1cc(C2CC2)nn1 | Toxic | > 427 µM | 5.4 µM | Non-Toxic | > 35.5 | 2.42 revertants/µg | > 35.5 | 3.833 µg | Toxic | 12 µM | Toxic | Non-Toxic | Non-Toxic | Non-Toxic | Toxic | > 79 | 6.31 revertants/µg | 0.278 revertants/µg | > 79 | Toxic | viability at 24 h, 4270 µM [4]: 94%; Activity_index [13]: 124; Activity [17]: 12; viability at 24 h, 2135 µM [18]: 95%; Activity [20]: Non-Toxic; GI50 at 24 h [26]: > 427 µM; Activity [27]: Toxic; Activity [28]: Non-Toxic; Activity [29]: Non-Toxic; Activity [30]: Toxic
CCCCCc1ccc(-c2cn(-c3c([N+](=O)[O-])ncn3C)nn2)cc1 | Toxic | > 350 µM | 12.9 µM | Toxic | > 0.25 | 2.96 revertants/µg | > 2.46 | 8.494 µg | Toxic | 142 µM | Toxic | Non-Toxic | Non-Toxic | Toxic | Toxic | 2.77 | 1.34 revertants/µg | 2.46 revertants/µg | 27 | Toxic | Activity_index [31]: 245; viability at 24 h, 1750 µM [32]: 85%; Activity [33]: 14; viability at 24 h, 350 µM [34]: 95%; Activity [35]: Toxic; Activity_index [36]: 115; GI50 at 24 h [26]: 35.8 µM; Activity [27]: Toxic; viability at 24 h, 3500 µM [37]: 71%; Activity [38]: 42; Activity [29]: Toxic; viability at 24 h, 350 µM [39]: 99%
